What was measured:
[1] = molecular target: T1, Aβ plaques (Homo sapiens, UniProt P05067); test: MicroPET/CT imaging in APP/PS1 and WT mice; assay type: in vivo; conditions: for distribution volume ratio (DVR): cortical ROI, cerebellum reference, RefLogan
Method: To directly access the potential of [^18F]-9 to bind Aβ plaques in vivo, we performed microPET/CT imaging in age-matched APP^+/−/PS1^+/− mice (n = 3) compared their WT counterparts, 5 min-2 h post tail-vein injection. […] Time activity curves (TAC) also indicated higher retention of activity within transgenic mice brains compared with their WT counterparts (Fig. 10). Additionally, ROI (cortical regions) were also analyzed using linearized method with a reference region (cerebellum) via Reference Logan plot (RefLogan), and distribution volume ratios (DVR) were obtained. The analysis indicated a statistically significant DVR value of 1.18 for transgenic mice brain compared with that of 1.03 for WT brains. These smaller differences in DVR values of targeted regions in transgenic mice compared with that of WT counterparts could also be attributed to a lack of true negative reference region in aged PS1/APP mice[57]. […] The differences between these tracers in this rodent model could be attributed to ability of [^18F]-9 for targeting both diffuse and fibrillary plaques. To further evaluate, whether or not [^18F]-9 offers significant advantage over other approved tracers, the agent would need to be further investigated for its performance in other AD rodent models (APP23 and Tg2576).
Scientific Reports Version of August 4, 2016 approved guidelines. 15-month-old APP+/-/PS1+/- mice were imaged using intravital multiphoton microscopy to assess pharmacokinetic profiles of the 5. The thinned-skull cranial windows were prepared on the day prior to imaging, as previously described16-18. Briefly, mice were anesthetized under volatile isoflurane (2% induction, 1.5% maintenance), the scalp and periosteum were removed to expose the skull.
A speed drill and microsurgical blade (Surgistar) were used to thin the skull until the skull window ([…]
(§1) For imaging 5 labeled plaques, two-photon fluorescence was generated with 800 nm excitation, and fluorescent emission was detected in the range of 435-485nm. […]

[2] = molecular target: T1, Aβ plaques; test: Real time multiphoton imaging in APP+/−/PS1+/− mice; assay type: in vivo; conditions: 2 mg/kg intravenous
Source text: For assessing viability of molecules as imaging probes in vivo[48], various imaging modalities, such as nuclear imaging (PET/SPECT), optical imaging, and MRI have been used to investigate simultaneously distribution kinetics and target-receptor specificity. While the resolution of PET and MRI allow in vivo imaging at relatively moderate resolution, the multiphoton microscopy enables evaluation of kinetics at a sub-micrometer resolution[49]. […] The generation of various transgenic (tg) animals overexpressing mutant human APP and/or PS1 and PS2, tg APP mice expressing ApoE isoforms including those for Tau offer attractive models for unravelling biochemical pathways prevalent in pathophysiology of AD[50]. […] Literature precedents indicate Aβ deposition by 2 months of age, with gradual quantitative increase at six months^55. […] Compared with barely detectable auto-fluorescence levels prior to imaging transgenic APP^+/−/PS1^+/− mice (Fig. 8, first panel), bright fluorescence appeared almost instantaneously following administration of 5. Fluorescence first appeared in large and small blood vessels within the brain. Within minutes (10 min), the brain parenchyma was uniformly bright in fluorescence, and Aβ deposits were labeled. […]
as §1

T1 sequence (P05067 672-711 limits assumed): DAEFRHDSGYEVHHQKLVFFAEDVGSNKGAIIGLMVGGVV

Compound | higher retention in transgenic mice brains vs WT ([1]; APP+/−/PS1+/− vs WT mice, n = 3, p < 0.05) [folds] | distribution volume ratio (DVR) ([1]; WT brains) | distribution volume ratio (DVR) ([1]; transgenic mice brain) | time at which labeling of parenchymal plaques peaked [2]
CN(C)c1ncc(/C=C\c2nc3cc(OCC[18F])ccc3[se]2)cn1 [[^18F]-9] | 1.2 | 1.03 | 1.18 | 
CN(C)c1ncc(/C=C\c2nc3cc(OCCF)ccc3[se]2)cn1 [compound 5, (Z)-5-(2-(5-(2-fluoroethoxy)benzo[d][1,3]selenazol-2-yl)vinyl)-N,N-dimethylpyrimidin-2-amine] |  |  |  | approximately 10 min

— PMC5090206, “Fluselenamyl: A Novel Benzoselenazole Derivative for PET Detection of Amyloid Plaques (Aβ) in Alzheimer’s Disease” (Scientific Reports, 2016)
